Measured values as given in EP0319906A2, “Novel quinoline derivatives, processes for preparation thereof and antibacterial agent containing them” (Dainippon Pharmaceutical Co., Ltd., priority 1987, dated 1989).
In brackets after ≈: the same amount, converted by molar mass. Read-outs that look alike come from different tables or passages of the source.

Tests used:
[1] = tested on: S. aureus Terajima; test: In vitro antibacterial activity, twofold agar-dilution MIC; format: cell-based; details: Staphylococcus aureus, read-out: minimum inhibitory concentrations (MIC)
Description: (§1) The figures in the table show minimum inhibitory concentrations (MIC) (µg/ml), calculated for free base. […] One loopful of an overnight culture of test organisms in Mueller-Hinton broth was inoculated onto 10 ml drug- containing agar layers in petri dishes. Bacterial inocula contained approximately 10⁶ colonyl-forming units. […] The MIC was defined as the lowest drug concentration which prevented visible bacterial growth.

[2] = tested on: P. aeruginosa 12; test: as above; format: cell-based; details: read-out: minimum inhibitory concentrations (MIC)
Description: as §1

[3] = tested on: S. pyogenes A65; test: as above; format: cell-based; details: Streptococcus pyogenes, read-out: minimum inhibitory concentrations (MIC)
Description: as §1

[4] = tested on: E. coli P-5101; test: as above; format: cell-based; details: Escherichia coli, read-out: minimum inhibitory concentrations (MIC)
Description: as §1

[5] = tested on: S. aureus 209 JC-1; test: as above; format: cell-based; details: Staphylococcus aureus, read-out: minimum inhibitory concentrations (MIC)
Description: as §1

[6] = tested on: S. marcescens S-9; test: as above; format: cell-based; details: Serratia marcescens, read-out: minimum inhibitory concentrations (MIC)
Description: as §1

[7] = tested on: S. aureus No. 80; test: as above; format: cell-based; details: Staphylococcus aureus, read-out: minimum inhibitory concentrations (MIC)
Description: as §1

[8] = tested on: S. epidermidis No. 8; test: as above; format: cell-based; details: Staphylococcus epidermidis, read-out: minimum inhibitory concentrations (MIC)
Description: as §1

[9] = tested on: E. coli NIHJ JC-2; test: as above; format: cell-based; details: Escherichia coli, read-out: minimum inhibitory concentrations (MIC)
Description: as §1

[10] = in vivo; details: mouse, po, orally given to male mice (ddY), dead mice counted after 7 days, Behrens-Kaerber method, read-out: LD₅₀
Description: A suspension containing each of compounds of this invention in various concentrations was orally given to male mice (ddY) at a dose of 0.1 ml per 10 g of body weight. The number of dead mice was counted after 7 days, and the value of median lethal dose (LD₅₀, mg/kg) was calculated in accordance with the Behrens-Kaerber method.

[11] = tested on: C. Trachomatics G/ur 1242; test: Antichlamydia activity, MIC in McCoy cells (inclusion bodies); format: cell-based; details: read-out: minimum inhibitory concentrations (MIC)
Description: (§2) The figures in the table show minimum inhibitory concentrations (MIC), (μg/ml), calculated for free base. Minimum inhibitory concentrations (MIC) were determined as follows. […] The cells were trypsinized and suspended in the same culture medium at a cell concentration of 1-2 x 10^5 cells/ml. One ml of the cell suspension was pipetted into flat-bottomed plastic tubes (14 mm in diameter) containing a cover slip (12 mm in diameter). The tubes were incubated in 5 % CO2-air at 36 °C for 20 hours. One-half ml of a chlamydial suspension (ca. 1-4 x 103 inclusion body forming units) was added into each tube, which was then centrifuged at 1500 x g for 60 minutes. The tubes were incubated for 1 hour at 36 °C. […] After further incubation at 36 °C for 40-48 hours, the cells on the cover glasses were stained with the Giemsa's solution. […] The MIC was defined as the lowest drug concentration where there were no inclusion bodies in all the cells on the cover slip.

[12] = tested on: C. Trachomatics G/ur 1448; test: as above; format: cell-based; details: read-out: minimum inhibitory concentrations (MIC)
Description: as §2

[13] = tested on: C. Trachomatics G/ur 931; test: as above; format: cell-based; details: read-out: minimum inhibitory concentrations (MIC)
Description: as §2

[14] = tested on: C. Trachomatics G/ur 1317; test: as above; format: cell-based; details: read-out: minimum inhibitory concentrations (MIC)
Description: as §2

[15] = tested on: M. orale CH-19299; test: Antimycoplasma activity, twofold agar dilution MIC; format: cell-based; details: po, 48 h, read-out: minimum inhibitory concentrations (MIC)
Description: (§3) The figures in the table show minimum inhibitory concentrations (MIC), (μg/ml), calculated for free base. Minimum inhibitory concentrations (MIC) were determined by the twofold agar dilution method. The media used were Chanock broth and agar [PPLD broth and agar (Difco) supplemented with 20 % horse serum and 10 % fresh yeast extract]. A 2-3 day broth culture of organisms was diluted with Chanock broth to a cell density of about 10^6 cells/ml. One loopful (about […]) of the organism dilution was spotted onto 10-ml drug containing Chanock agar in petri dishes using a multiple inoculator ([…] International). […] Incubation was performed anaerobically using the […] anaerobic system (BBL) for M. buccale, M. fermentans, M. hominis, M. orale and M. salivarium, and aerobically for other Mycoplasma spp. The MIC was defined as the lowest compound concentration at which no growth of organism was detected.

[16] = tested on: M. hyorhinis BST-7; test: Antimycoplasma activity, twofold agar dilution MIC; format: cell-based; details: Mesomycoplasma hyorhinis, BST7, 48 h, read-out: minimum inhibitory concentrations (MIC)
Description: as §3

[17] = tested on: A. laidlawii PG-8; test: Antimycoplasma activity, twofold agar dilution MIC; format: cell-based; details: Acholeplasma laidlawii, PG8, 48 h, read-out: minimum inhibitory concentrations (MIC)
Description: as §3

[18] = tested on: M. hominis PG-21; test: Antimycoplasma activity, twofold agar dilution MIC; format: cell-based; details: Metamycoplasma hominis, PG21, 48 h, read-out: minimum inhibitory concentrations (MIC)
Description: as §3

[19] = tested on: M. fermentans PG-18; test: Antimycoplasma activity, twofold agar dilution MIC; format: cell-based; details: Mycoplasmopsis fermentans, PG18, 48 h, read-out: minimum inhibitory concentrations (MIC)
Description: as §3

[20] = tested on: M. arginini G-230; test: Antimycoplasma activity, twofold agar dilution MIC; format: cell-based; details: 48 h, read-out: minimum inhibitory concentrations (MIC)
Description: as §3

[21] = tested on: M. salivarium PG-20; test: Antimycoplasma activity, twofold agar dilution MIC; format: cell-based; details: 48 h, read-out: minimum inhibitory concentrations (MIC)
Description: as §3

[22] = tested on: M. buccale CH-20249; test: Antimycoplasma activity, twofold agar dilution MIC; format: cell-based; details: 48 h, read-out: minimum inhibitory concentrations (MIC)
Description: as §3

[23] = tested on: M. pneumoniae Mac; test: Antimycoplasma activity, twofold agar dilution MIC; format: cell-based; details: Mycoplasmoides pneumoniae, 168 h, read-out: minimum inhibitory concentrations (MIC)
Description: as §3

[24] = S. aureus Terajima, Mueller-Hinton agar, 20-hour incubation at 37 °C, calculated for free base
[25] = Pseudomonas aeruginosa, P. aeruginosa 12, Mueller-Hinton agar, 20-hour incubation at 37 °C, calculated for free base
[26] = S. pyogenes A65, Mueller-Hinton agar, 20-hour incubation at 37 °C, calculated for free base
[27] = P5101, E. coli P-5101, Mueller-Hinton agar, 20-hour incubation at 37 °C, calculated for free base
[28] = 209JC1, S. aureus 209 JC-1, Mueller-Hinton agar, 20-hour incubation at 37 °C, calculated for free base
[29] = S9, S. marcescens S-9, Mueller-Hinton agar, 20-hour incubation at 37 °C, calculated for free base
[30] = S. aureus No. 80, Mueller-Hinton agar, 20-hour incubation at 37 °C, calculated for free base
[31] = S. epidermidis No. 8, Mueller-Hinton agar, 20-hour incubation at 37 °C, calculated for free base
[32] = NIHJJC2, E. coli NIHJ JC-2, Mueller-Hinton agar, 20-hour incubation at 37 °C, calculated for free base
[33] = C. Trachomatics G/ur 1242, McCoy cells, 36 °C for 40-48 hours, calculated for free base
[34] = C. Trachomatics G/ur 1448, McCoy cells, 36 °C for 40-48 hours, calculated for free base
[35] = C. Trachomatics G/ur 931, McCoy cells, 36 °C for 40-48 hours, calculated for free base
[36] = C. Trachomatics G/ur 1317, McCoy cells, 36 °C for 40-48 hours, calculated for free base

## Cc1c(F)c(N2CCNCC2)cc2c1c(=O)c(C(=O)O)cn2C1CC1 [Compound 5, 1-cyclopropyl-6-fluoro-5-methyl-7-(1-piperazinyl)-1,4-dihydro-4-oxoquinoline-3-carboxylic acid]
[1]; [24]
  MIC: 0.025 µg/mL (≈ 0.0724 µM)
[2]; [25]
  MIC: 0.1 µg/mL (≈ 0.29 µM)
[3]; [26]
  MIC: 0.39 µg/mL (≈ 1.13 µM)
[4]; [27]
  MIC: 0.0125 µg/mL (≈ 0.0362 µM)
[5]; [28]
  MIC: 0.05 µg/mL (≈ 0.145 µM)
[6]; [29]
  MIC: 0.2 µg/mL (≈ 0.579 µM)
[7]; [30]
  MIC: 0.0125 µg/mL (≈ 0.0362 µM)
[8]; [31]
  MIC: 0.025 µg/mL (≈ 0.0724 µM)
[9]; [32]
  MIC: 0.0125 µg/mL (≈ 0.0362 µM)
[10]
  LD50 at 7 days: > 2000 mg/kg

## Cl.O=C(O)c1cn(C2CC2)c2cc(N3CCNCC3)c(F)cc2c1=O [Compound A, 1-cyclopropyl-6-fluoro-7-(1-piperazinyl)-1,4-dihydro-4-oxoquinoline-3-carboxylic acid hydrochloride]
[1]; 20 h
  MIC: 0.1 µg/mL
[2]; Pseudomonas aeruginosa, 12, 20 h
  MIC: 0.1 µg/mL
[3]; A65, 20 h
  MIC: 0.2 µg/mL
[4]; P5101, 20 h
  MIC: 0.0063 µg/mL
[5]; 209JC1, 20 h
  MIC: 0.1 µg/mL
[6]; S9, 20 h
  MIC: 0.05 µg/mL
[7]; NO.80, 20 h
  MIC: 0.39 µg/mL
[8]; NO.8, 20 h
  MIC: 0.1 µg/mL
[9]; NIHJJC2, 20 h
  MIC: 0.0063 µg/mL
[11]
  MIC: 1 µg/mL
[12]
  MIC: 1 µg/mL
[13]
  MIC: 1 µg/mL
[14]
  MIC: 2 µg/mL
[15]
  MIC: 1.56 µg/mL
[16]
  MIC: 0.39 µg/mL
[17]
  MIC: 0.39 µg/mL
[18]
  MIC: 1.56 µg/mL
[19]
  MIC: 0.2 µg/mL
[20]
  MIC: 0.39 µg/mL
[21]
  MIC: 3.13 µg/mL
[22]
  MIC: 0.39 µg/mL
[23]
  MIC: 0.78 µg/mL

## O=C(O)c1cn(C2CC2)c2c(F)c(N3CCNCC3)c(F)cc2c1=O [Compound B, 1-cyclopropyl-6,8-difluoro-7-(1-piperazinyl)-1,4-dihydro-4-oxoquinoline-3-carboxylic acid, reference compound]
[1]; [24]
  MIC: 0.1 µg/mL (≈ 0.286 µM)
[2]; [25]
  MIC: 0.1 µg/mL (≈ 0.286 µM)
[3]; [26]
  MIC: 0.39 µg/mL (≈ 1.12 µM)
[4]; [27]
  MIC: 0.0063 µg/mL (≈ 0.018 µM)
[5]; [28]
  MIC: 0.1 µg/mL (≈ 0.286 µM)
[6]; [29]
  MIC: 0.05 µg/mL (≈ 0.143 µM)
[7]; [30]
  MIC: 0.2 µg/mL (≈ 0.573 µM)
[8]; [31]
  MIC: 0.1 µg/mL (≈ 0.286 µM)
[9]; [32]
  MIC: 0.0063 µg/mL (≈ 0.018 µM)
[11]; [33]
  MIC: 0.39 µg/mL (≈ 1.12 µM)
[12]; [34]
  MIC: 0.39 µg/mL (≈ 1.12 µM)
[13]; [35]
  MIC: 0.39 µg/mL (≈ 1.12 µM)
[14]; [36]
  MIC: 0.39 µg/mL (≈ 1.12 µM)

## Cc1c(F)c(N2CCNCC2)c(C#N)c2c1c(=O)c(C(=O)O)cn2C1CC1 [Compound D, 8-cyano-1-cyclopropyl-6-fluoro-5-methyl-7-(1-piperazinyl)-1,4-dihydro-4-oxoquinoline-3-carboxylic acid, reference compound]
[1]; [24]
  MIC: 0.1 µg/mL (≈ 0.27 µM)
[2]; [25]
  MIC: 0.39 µg/mL (≈ 1.05 µM)
[3]; [26]
  MIC: 1.56 µg/mL (≈ 4.21 µM)
[4]; [27]
  MIC: 0.0125 µg/mL (≈ 0.0337 µM)
[5]; [28]
  MIC: 0.1 µg/mL (≈ 0.27 µM)
[6]; [29]
  MIC: 0.39 µg/mL (≈ 1.05 µM)
[7]; [30]
  MIC: 0.1 µg/mL (≈ 0.27 µM)
[8]; [31]
  MIC: 0.1 µg/mL (≈ 0.27 µM)
[9]; [32]
  MIC: 0.0125 µg/mL (≈ 0.0337 µM)
[11]; [33]
  MIC: 3.13 µg/mL (≈ 8.45 µM)
[12]; [34]
  MIC: 3.13 µg/mL (≈ 8.45 µM)
[13]; [35]
  MIC: 1.56 µg/mL (≈ 4.21 µM)
[14]; [36]
  MIC: 3.13 µg/mL (≈ 8.45 µM)
